The record followed here is PubChem BioAssay (NCI).

Common to all, as to experiment: NCI-60 cell line screen, 48 h
Experiment [1] deals with SF-539 CNS.
Experiment [2] deals with RPMI-8226 leukemia.
In experiment [3] the test system is SK-MEL-5 melanoma.
Experiment [4] concerns NCI-H23 lung.
The test system of experiment [5] is MALME-3M melanoma.
Experiment [6] concerns A549 NSCLC.
In experiment [7] the test system is NCI-H226 lung.
In experiment [8] the test system is ACHN renal.
The test system of experiment [9] is HT29 colon.
The test system of experiment [10] is HCC-2998 colon.

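All cell lines were grown in 96-well plates and treated with compound for 48 hours. At the GI50, growth is halved. TGI: concentration producing complete growth inhibition.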 Where only a bound is given, the exact number is not on record here.

For the compound `O=S(=O)([O-])[O-].[OH3+].[OH3+].[OH3+].[Ru+2].c1ccccc1`, the GI50 in experiment [1], in experiment [2], in [3], in [4], in experiment [5] and in experiment [6] was above 100 µM in each case. For the same compound, the GI50 in experiment [7], in experiment [8], in experiment [9] and in experiment [10] was above 100 µM each time. The TGI in experiment [1], in experiment [2], in experiment [3], in [4], in [5] and in experiment [6] was above 100 µM throughout. Besides, the TGI in experiment [7], in [8], in experiment [9] and in experiment [10] was above 100 µM each time.

Regarding `O=C(Nc1ccc(S(=O)(=O)Nc2nccs2)cc1)c1cccnc1Nc1cccc(Cl)c1`, the GI50 is 16.2 µM in [1]; 19.8 µM in experiment [2]; 11.3 µM in [3]; 12.9 µM in [4]; 16.9 µM in [5]; 15.3 µM in experiment [6]. Also, the GI50 was 21.9 µM in experiment [7], 18.1 µM in experiment [8], 16.7 µM in experiment [9] and 14.1 µM in experiment [10]. Moreover, the TGI in experiment [1] turned out to be 44.5 µM; in experiment [2], 89.2 µM; in experiment [3] it was 23.5 µM; in experiment [4], 28.5 µM; in [5], 48.1 µM; in experiment [6], 39.8 µM. Besides, the TGI is 98.7 µM in [7], 96.6 µM in experiment [8], 30.3 µM in [9] and 27.9 µM in experiment [10].

Take `CC(C)(C)NNC(=O)/C(=C/c1ccc(Oc2ccc(Cl)c(Cl)c2)cc1)NC(=O)c1ccccc1`: the TGI is above 100 µM in [1]; 45.1 µM in experiment [2]; above 100 µM in experiment [3]; above 100 µM in experiment [4]; above 100 µM in experiment [5]; above 100 µM in [6]. The TGI in [7], in experiment [8], in experiment [9] and in [10] was above 100 µM throughout.

For the compound `CCN(CC)CCCN(c1cc(OC)cc2nccnc12)S(=O)(=O)c1ccc(C)cc1`, the TGI in experiment [1], in [2], in experiment [3], in experiment [4], in experiment [5] and in experiment [6] was above 100 µM each time. The TGI in experiment [7], in experiment [8], in experiment [9] and in experiment [10] was above 100 µM in each case.

Consider `CC(=O)N(C)OC(=O)CC(=O)c1ccccc1`, for which the TGI in experiment [1], in [2], in [3], in [4], in experiment [5] and in [6] was above 100 µM throughout. The TGI in [7], in experiment [8], in experiment [9] and in experiment [10] was above 100 µM in each case.

On to `O=C1C=CC(=O)c2c1ccc1c3ccccc3n(-c3ccccn3)c21`, for which the TGI is 68.2 µM in experiment [1]; above 100 µM in experiment [2]; above 100 µM in experiment [4]; 32.7 µM in experiment [5]; above 100 µM in experiment [6]; 82.7 µM in experiment [7]. For the same compound, the figures for the TGI in experiment [8], in [9] and in [10] were 35.6 µM, 77.1 µM and above 100 µM, respectively.

As for `N#CC1=C(N)Oc2cc3c(cc2C1c1cccs1)OCO3` (centres undefined), the GI50 is 0.747 µM in experiment [1]; 0.451 µM in experiment [2]; 0.34 µM in [3]; 0.428 µM in [4]; 0.58 µM in experiment [5]; 0.583 µM in [6]. Moreover, the GI50 in experiment [7] is 0.653 µM; in [8] it was 3.63 µM; in experiment [9] it was 0.377 µM; in experiment [10], 0.775 µM. Besides, the TGI in experiment [1] was 11.2 µM; in [2] it was 40.7 µM; in [3], above 43.5 µM; in experiment [4] it was above 100 µM; in experiment [5], above 100 µM; in [6], above 70.9 µM. Also, the TGI is above 100 µM in experiment [7], above 100 µM in [8], 15.2 µM in [9] and 11.6 µM in experiment [10].

For `O=C1/C(=C/c2cccc([N+](=O)[O-])c2)COc2ccc(O)c(O)c21`, the GI50 in [1] was 1.61 µM; in experiment [2] it was 0.301 µM; in [3], 1.55 µM; in experiment [4], 1.75 µM; in experiment [5], 1.49 µM; in [6], 2.06 µM. In addition, the GI50 was 2.35 µM in experiment [7], 1.36 µM in experiment [8], 2.89 µM in experiment [9] and 1.66 µM in [10]. In addition, the TGI in experiment [1] worked out at 3.57 µM; in experiment [2], 0.93 µM; in experiment [3], 2.95 µM; in experiment [4], 3.95 µM; in experiment [5], 3.04 µM; in experiment [6], 6.37 µM. Also, the TGI is 8.33 µM in experiment [7], 2.68 µM in experiment [8], 19.1 µM in experiment [9] and 3.22 µM in experiment [10].

`C/C(CN1C(=O)c2ccccc2C1=O)=N\NS(=O)(=O)c1cccc([N+](=O)[O-])c1`: the TGI in experiment [1], in [2], in experiment [3], in experiment [4], in experiment [5] and in [6] was above 100 µM throughout. For the same compound, the TGI in [7], in [8], in [9] and in [10] was above 100 µM in each case.
